Experimental data reported in patent US20100310467A1, “COMPOSITION AND METHOD FOR GENERATING A METABOLIC PROFILE USING 13C-MR DETECTION” (priority 2007, published 2010).

What was measured:
[1] = Solid state polarisation by solid state 13C-NMR after DNP; assay type: physicochemical; details: DNP at 1.2 K, 3.35 T, microwave 93.90 GHz, trityl radical and Gd-chelate
From the text: The level of polarisation may for instance be determined by solid state ^13C-NMR measurements in solid hyperpolarised ^13C-fumarate, e.g. solid hyperpolarised ^13C-fumarate obtained by dynamic nuclear polarisation (DNP) of ^13C-fumarate. The solid state ^13C-NMR measurement preferably consists of a simple pulse-acquire NMR sequence using a low flip angle. The signal intensity of the hyperpolarised ^13C-fumarate in the NMR spectrum is compared with signal intensity of ^13C-fumarate in a NMR spectrum acquired before the polarisation process. The level of polarisation is then calculated from the ratio of the signal intensities of before and after polarisation.
The probe is inserted into the probe-retaining container, submerged in the liquid helium and irradiated with microwaves, preferably at a frequency of about 94 GHz at 200 mW. The level of polarisation may be monitored by for instance acquiring solid state ^13C-NMR signals of the probe during microwave irradiation. Generally, a saturation curve is obtained in a graph showing NMR signal vs. time. […] A solid state ^13C-NMR measurement suitably consists of a simple pulse-acquire NMR sequence using a low flip angle. The signal intensity of the dynamic nuclear polarised nuclei, i.e. ^13C nuclei in ^13C-fumaric acid or ^13C-fumarate is compared with the signal intensity of the ^13C nuclei in ^13C-fumaric acid or ^13C-fumarate before DNP. The polarisation is then calculated from the ratio of the signal intensities before and after DNP.
To a micro test tube was added ^13C1,4-fumaric acid (33.5 mg, 0.284 mmol), TRIS (42 mg, 0.347 mmol) and 22.5 μl water. The test tube was gently heated and sonicated to dissolve all compounds. […] Polarisation was followed by solid state ^13C-NMR and the solid state polarisation was determined to be 25%.

[2] = Liquid state polarisation and T1 by liquid state 13C-NMR; assay type: physicochemical; details: for T1: at 9.4 T; for Liquid state polarisation: liquid state 13C-NMR at 400 MHz, after 90 minutes DNP and dissolution
Description: In a similar way, the level of polarisation for dissolved hyperpolarised ^13C-fumarate may be determined by liquid state NMR measurements. Again the signal intensity of the dissolved hyperpolarised ^13C-fumarate is compared with the signal intensity of the dissolved ^13C-fumarate before polarisation. The level of polarisation is then calculated from the ratio of the signal intensities of ^13C-fumarate before and after polarisation.
After 90 minutes of dynamic nuclear polarisation, the obtained frozen polarised composition was dissolved in 6 ml of a solution prepared from 5.87 ml water (100 mg/l EDTA added), 133 μl NaOH aq (2 M) and 30 mg NaCl. The pH of the final solution containing the dissolved composition was 7.2. The ^13C1,4-fumarate concentration in said final solution was 50 mM.
Liquid state polarisation was determined by liquid state ^13C-NMR at 400 MHz to be 21%. T1 at 9.4 T was 34 s.

mouse hind leg muscle = experiment: In vivo 13C-MR spectroscopy of mouse leg before and after ischemic injury; parameters: species or system C57Bl/6 mouse
Description: 175 μl of an imaging medium comprising hyperpolarised sodium ^13C1,4-fumarate which was prepared as described in Example 2 was injected into a C57Bl/6 mouse over a time period of 6 s. The sodium ^13C1,4-fumarate concentration in said imaging medium was about 50 mM. A surface coil (tuned for carbon) was positioned around the leg muscle and signals of ^13C-fumarate and ^13C-malate were detected by ^13C-MR spectroscopy which was carried out in a 2.4 T Bruker spectrometer to generate a metabolic profile. A total of 60 ^13C-spectra were acquired with a repetition time of 2 s and 15 degree RF pulses. Ischemia in a mouse leg muscle was made by strangulation of the hind leg muscle. Following an ischemic period of 30 min the mouse leg muscle was re-perfused for one hour. In this Example, the ^13C-malate signal is approximately 0.5% of the ^13C-fumarate signal in the mouse muscle before ischemia. Following ischemia and 5 min. reperfusion the ^13C-malate signal is approximately 1.5% of the ^13C-fumarate signal. After 60 min. reperfusion the ^13C-malate signal is approximately 4% of the ^13C-fumarate signal. With an identical protocol signals of ^13C-pyruvate and ^13C-lactate were detected by ^13C-MR spectroscopy (polarisation of pyruvate was carried out as described in Example 2 of WO-A-2006/011809).

cells = experiment: Further in vitro experiments, malate production after etoposide treatment; assay type: cell-based
[3] = test system: subcutaneous mouse lymphoma (EL-4); experiment: 13C-dynamic imaging of subcutaneous mouse lymphoma with and without etoposide treatment; assay type: in vivo, C57Bl/6 mouse; details: EL-4 tumours, 22-26 hours after etoposide injection, n=5, signal normalized to maximum fumarate signal
Description: EL-4 cells were injected into a C57Bl/6 mouse to generate a subcutaneous mouse lymphoma. On day 9 after implantation, the EL4 tumour was imaged. 175 μl of an imaging medium comprising hyperpolarised sodium ^13C1-fumarate-d2 which was prepared as described in Example 3 was injected into the mouse over a time period of 6 s. The sodium ^13C1-fumarate-d2 concentration in said imaging medium was about 20 mM. A surface coil (tuned for carbon) was positioned over the subcutaneous tumour and signals of ^13C-fumarate and ^13C-malate were detected by ^13C-MR spectroscopy which was carried out using a 2.4 T Bruker spectrometer to generate a metabolic profile of the tumour and the surrounding healthy tissue. A slice selective FID was acquired with a 10° RF flip angle, TR=3 s, and 60 repetitions. […] Signal amplitudes for both malate and fumarate were normalized to the maximum fumarate signal and were measured as a function of time. […] Fumarase may be an ideal candidate enzyme for this because it requires no cofactors for its activity (so its activity is solely determined by the availability of the enzyme and the substrate) and the rate of conversion is very fast in vivo (about ˜2-4 fold faster than lactate dehydrogenase) making it a sensitive test.

[4] = test system: Dicarboxylate Transporter (DCT); experiment: In vitro hyperpolarized malate production with transporter inhibition; assay type: cell-based
[5] = test system: MDA-MB-231 cells (human epithelial breast cell adenocarcinoma); experiment: In vitro 13C-MR detection, conversion of 13C-fumarate to 13C-malate; assay type: cell-based
Description: (§1) 50 μl (2.7 mM in sodium ^13C1-fumarate-d2) of an imaging medium which was prepared according to Example 3 was mixed into 8*10^6 MDA-MB-231 cells (human epithelial breast cell adenocarcinoma). Signals of ^13C-fumarate and ^13C-malate were detected by acquiring a set of ^13C-MR spectra every 5 s with a 15 degree RF pulse. The result is shown in FIG. 1: ^13Cmalate was building up over time. The conversion rate was 70 μmol/min*g soluble protein with a peak ^13C-malate signal after approximately 30 s. With an identical protocol conversion rates were calculated for three other human cancer cell lines, these are compared in Table 1.
(§2) Table. […] Formation of ^13C1,4-malate-d2 from ^13C1-fumarate is calculated for the 4 investigated cell lines (n≧3). […] This cell line is highly invasive and hormone-insensitive and represents a late stage cancer. Formation rate of malate varies greatly between the two prostate cancer lines, with a 7 times higher conversion rate in the more aggressive PC-3 line, compared to DU-145.

DU-145 cells = experiment: as above; assay type: cell-based, human; details: n≧3
Description: as §1, §2

H-EMC-SS cells = experiment: as above; assay type: cell-based, human; details: n≧3
Description: as §1, §2

PC-3 cells = experiment: as above; assay type: cell-based, human
Description: as §1, §2

O=[13C](O)/C=C/[13C](=O)O [^13C1,4-fumaric acid]
solid state polarisation [1]: 30%

O=[13C](O)/C=C/[13C](=O)O [^13C1,4-fumarate]
T1 [2]: 34 s
Liquid state polarisation [2]: 21%

O=[13C]([O-])/C=C/[13C](=O)[O-].[Na+].[Na+] [sodium ^13C1,4-fumarate]
T1 [2]: 34 s
Liquid state polarisation [2]: 29%
13C-malate signal as % of the 13C-fumarate signal (mouse hind leg muscle; 30 min ischemia, 5 min reperfusion): approximately 1.5%
13C-malate signal as % of the 13C-fumarate signal (mouse hind leg muscle; 30 min ischemia, 60 min reperfusion): approximately 4%
13C-malate signal as % of the 13C-fumarate signal (mouse hind leg muscle; mouse muscle before ischemia): approximately 0.5%

COc1cc([C@@H]2c3cc4c(cc3[C@@H](O[C@@H]3O[C@@H]5CO[C@@H](C)O[C@H]5[C@H](O)[C@H]3O)[C@H]3COC(=O)[C@H]23)OCO4)cc(OC)c1O [etoposide]
malate production (cells; after 14 hrs of treatment with etoposide): increase in malate production
malate production (cells; after 16 hrs of treatment with etoposide): further increase
malate signal compared to untreated tumours [3]: 65%

TRIS-^13C1,4-fumarate
solid state polarisation [1]: 25%

[Cl-].[Li+] [lithium chloride]
change in hyperpolarized malate production ([4]; provisional experiments with lithium chloride): only a small reduction

CC(=O)[13C](=O)O [^13C-pyruvate, reference compound]
13C-lactate signal relative to pyruvate signal (mouse hind leg muscle; 60 min reperfusion): back to levels comparable to the healthy muscle
13C-lactate signal relative to pyruvate signal (mouse hind leg muscle; directly after ischemia): increases to above the pyruvate signal
13C-lactate signal as % of the 13C-pyruvate signal (mouse hind leg muscle; healthy muscle): approximately 40%

O=C(O)CCC(=O)O [succinate]
change in malate production ([4]; excess (50 mM) of unlabelled, non-hyperpolarized succinate added): only a small reduction

[2H]/C(C(=O)O)=C(/[2H])[13C](=O)O [^13C1-fumaric acid-d2]
solid state polarisation [1]: 41%

[2H]/C(C(=O)[O-])=C(/[2H])[13C](=O)[O-].[Na+].[Na+] [sodium ^13C1-fumarate-d2]
T1 [2]: 44 s
Liquid state polarisation [2]: 40%
conversion rate (fumarate to malate) ([5]; 8*10^6 MDA-MB-231 cells, 50 μl imaging medium (2.7 mM), FIG. 1): 70 μmol/min*g soluble protein
Malate formation rate ([5]; MDA-MB-231 cells, n≧3): 77 ± 19 μmol min^−1 g^−1 protein
time of peak 13C-malate signal ([5]; MDA-MB-231 cells, spectra every 5 s): approximately 30 s
Malate formation rate (DU-145 cells): 6 ± 2 μmol min^−1 g^−1 protein
Malate formation rate (H-EMC-SS cells): 40 ± 14 μmol min^−1 g^−1 protein
Malate formation rate (PC-3 cells; PC-3 cells, n≧3): 42 ± 0.5 μmol min^−1 g^−1 protein
conversion rate in PC-3 compared to DU-145 (PC-3 cells; prostate cancer lines PC-3 vs DU-145): 7 times
